Where “and” joins values, the source holds several entries; their conditions need not be identical. Identical values can stand only once. Entries after “also recorded” stand apart in the source; their conditions may differ. Like-named read-outs stand apart in the source and are kept apart here.
Columns and labels:
[1] = acute toxicity tests with mice; settings: mouse, in vivo
Excerpt: The toxicity of compound (I) in animals is very low.

[2] = tested on: Treponema hyodysenteriae 78/A strain; assay: efficacy against swine dysentery under experimental infection conditions in pigs (drug in feed), Test Examples 5-7; type: in vivo, Landrace pigs; settings: for Number of days on which diarrhea was observed / Number of days on which mucous bloody stool was observed / Number of pigs showing signs of infection/number of pigs used: 21-day test period; for Body weight gain / Feed conversion / Feed intake: 21 day period; for Body weight gain / Feed conversion / Feed intake / Body weight at the time of completion of test: mean per head
Procedure, shortened: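 Landrace pigs, 4 per group, fed starter feed with drug admixed (100 ppm or lower; 10 ppm for lankacidin A and C 14-propionate) ad libitum; infected at 7 weeks after 24 h fast by 100 ml intragastric inoculum of two-fold diluted colonic contents/mucosa from 78/A-infected pigs. Fed 21 days post-infection; per-head means to autopsy.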

[3] = tested on: Treponema hyodysenteriae 78/A strain; assay: therapeutic administration in pigs showing clinical signs of swine dysentery, Test Examples 8-9; type: in vivo; settings: for No. of pathogen (in feces) / Condition of feces: individual pig
Protocol: This test was conducted under the conditions of so-called therapeutic administration. […] The method of infection was the same as in Test Example 5. […] Simultaneously with showing of the signs, the pigs were provided with a feed containing 50 ppm of lankacidin C. […] After 2 days, the viable count for the pathogen in feces was below the detection limit (10^2 CFU/g).
The condition of feces was rated at one of the following four classes:
.circle. normal; loose; diarrheal; .circleincircle. mucous and bloody
count is below the detection limit (10^2 CFU/g).
The symbol * indicates those days on which the feed containing 50 ppm of
lankacidin C was given.
Lankacidins were tested for therapeutic effects in swine dysentery under therapeutic conditions in the same manner as in Test Example 8. The effects were judged based on the condition of feces.
The condition of feces was rated at one of the following four classes;
The symbol * indicates the days on which the feed containing 50 ppm of th

[4] = growth of pigs, 5-month continuous dietary administration, Test Examples 10-11; type: in vivo, Landrace pigs; settings: for Body weight at end / Body weight at feed exchange / Body weight gain for starter feed period / Body weight gain for whole period / Feed conversion for starter feed period / Feed conversion for whole period / Feed intake for starter feed period / Feed intake for whole period: mean per head
Protocol: Effects of compound (I) on the growth of pigs under the conditions in which swine dysentery was absent were examined. Thus, 40 one-month-old Landrace pigs (5 litters) were used in groups each consisting of 8 (4 males and 4 females). Lankacidin C was added in concentrations of 0 (control), 1, 2.5, 5 and 10 ppm to antibacterial agent-free starter feed for the period from the start of the test through the age of 3 months and to the feed for testing pigs for performance of meat production (also free of antibacterial agents) for the period from the age of 4 months to the age of 6 months (end). Thus, in each group, dietary lankacidin C was administered continuously for 5 months.
The data are each the mean value per head. Different alphabetic letters o
Fourty-eight 35-day-old Landrace pigs (6 litters) were used in 6 groups each consisting of 8 (4 males and 4 females). Lankacidin A was added in concentrations of 0 (control), 1, 2.5, 5, 10 and 20 ppm to antibacterial agent-free starter feed for the period from the start of the test through the age of 3 months and to the feed for testing pigs for performance of meat production (also free of antibacterial agents) for the period from the age of 4 months to the age of 6 months (end).

[5] = 50 ppm in feed, autopsy 15 days after manifestation of signs

CC(=O)C(=O)NC1C=C(C)C=CC(O)CC=C(C)C=CC(O)CC2OC(=O)C1(C)C(=O)C2C (stereo not drawn) [Lankacidin C, lankacidin C]
LD50 ([1]; ip, intraperitoneal, read-out: intraperitoneal LD50): 4500 mg/kg
LD50 ([1]; oral, read-out: oral LD50): > 10000 mg/kg
Number of pigs from which the pathogen was detected, in colonic mucosa ([2]; 10 ppm in feed): 0
Number of pigs from which the pathogen was detected, in feces ([2]; 10 ppm in feed): 0
Number of pigs showing colonic lesions ([2]; 10 ppm in feed): 0
Number of days on which diarrhea was observed ([2]; 10 ppm in feed): 0 days
Number of days on which mucous bloody stool was observed ([2]; 10 ppm in feed): 0 days
Number of pigs showing signs of infection/number of pigs used ([2]; 10 ppm in feed): 0/4
Body weight gain ([2]; 10 ppm in feed): 484 grams/day
Feed conversion ([2]; 10 ppm in feed): 1.81
Feed intake ([2]; 10 ppm in feed): 18.4 kg
Body weight at the time of completion of test ([2]; 10 ppm in feed): 20.7 kg
Number of pigs from which the pathogen was detected, in colonic mucosa ([2]; 50 ppm in feed): 0
Number of pigs from which the pathogen was detected, in feces ([2]; 50 ppm in feed): 0
Number of pigs showing colonic lesions ([2]; 50 ppm in feed): 0
Number of days on which diarrhea was observed ([2]; 50 ppm in feed): 0 days
Number of days on which mucous bloody stool was observed ([2]; 50 ppm in feed): 0 days
Number of pigs showing signs of infection/number of pigs used ([2]; 50 ppm in feed): 0/4
Body weight gain ([2]; 50 ppm in feed): 673 grams/day
Feed conversion ([2]; 50 ppm in feed): 1.79
Feed intake ([2]; 50 ppm in feed): 25.3 kg
Body weight at the time of completion of test ([2]; 50 ppm in feed): 25.3 kg
Number of pigs from which the pathogen was detected, in colonic mucosa ([2]; 100 ppm in feed): 0
Number of pigs from which the pathogen was detected, in feces ([2]; 100 ppm in feed): 0
Number of pigs showing colonic lesions ([2]; 100 ppm in feed): 0
Number of days on which diarrhea was observed ([2]; 100 ppm in feed): 0 days
Number of days on which mucous bloody stool was observed ([2]; 100 ppm in feed): 0 days
Number of pigs showing signs of infection/number of pigs used ([2]; 100 ppm in feed): 0/4
Body weight gain ([2]; 100 ppm in feed): 708 grams/day and 689 grams/day
Feed conversion ([2]; 100 ppm in feed): 1.85 and 1.77
Feed intake ([2]; 100 ppm in feed): 27.5 kg and 25.6 kg
Body weight at the time of completion of test ([2]; 100 ppm in feed): 28.5 kg and 25.5 kg
effect against swine dysentery (in words) ([2]; pig, in vivo): excellent effect against swine dysentery; also recorded: more excellent anti-swine-dysentery agent than carbadox
therapeutic effect in swine dysentery (in words) ([3]; 50 ppm in feed): therapeutically effective
viable count for the pathogen in feces ([3]; 50 ppm in feed, after 2 days): < 10^2 CFU/g
colonic lesions (autopsy) [3, 5]: negative
pathogen at autopsy (in words) [3, 5]: without the pathogen being detected
colonic lesions (autopsy) ([3]; 50 ppm in feed, autopsy 15 days after manifestation of signs, listed as lankacidin C): no colonic lesions
No. of pathogen (in feces) ([3]; 50 ppm in feed, day 0): 8.0 log/g and 6.0 log/g and 7.1 log/g and 6.8 log/g
No. of pathogen (in feces) ([3]; 50 ppm in feed, day 1): 4.3 log/g and 2.3 log/g and 4.4 log/g and 2.0 log/g
mucous bloody diarrhea / passage (in words) ([3]; 50 ppm in feed, day following the administration): mucous bloody diarrhea was no more observed on the day following the administration but the passage was loose or normal
Condition of feces ([3]; Table 8, 50 ppm in feed days 0-6, day 7): .circle.
Condition of feces ([3]; Table 8, 50 ppm in feed days 0-6, day 8): .circle.
Condition of feces ([3]; Table 8, 50 ppm in feed days 0-6, day 9): .circle.
Condition of feces ([3]; Table 8, 50 ppm in feed days 0-6, day 10): .circle.
Condition of feces ([3]; Table 8, 50 ppm in feed days 0-6, day 11): .circle.
Condition of feces ([3]; Table 8, 50 ppm in feed days 0-6, day 12): .circle.
Condition of feces ([3]; Table 8, 50 ppm in feed days 0-6, day 13): .circle.
Condition of feces ([3]; Table 8, 50 ppm in feed days 0-6, day 14): .circle.
Condition of feces ([3]; Table 8, 50 ppm in feed days 0-6, day 15): .circle.
Condition of feces ([3]; Table 8, 50 ppm in feed, day 0 after manifestation of signs): .circleincircle.
Condition of feces ([3]; Table 8, 50 ppm in feed, day 1): .circle.
Condition of feces ([3]; Table 8, 50 ppm in feed, day 2): .circle.
Condition of feces ([3]; Table 8, 50 ppm in feed, day 3): .circle.
Condition of feces ([3]; Table 8, 50 ppm in feed, day 4): .circle.
Condition of feces ([3]; Table 8, 50 ppm in feed, day 5): .circle.
Condition of feces ([3]; Table 8, 50 ppm in feed, day 6): .circle.
Condition of feces ([3]; Table 9, 50 ppm in feed, day 0 after manifestation of signs): .circleincircle.
Condition of feces ([3]; Table 9, 50 ppm in feed, day 1): .circle.
Condition of feces ([3]; Table 9, 50 ppm in feed, day 2): .circle.
Condition of feces ([3]; Table 9, 50 ppm in feed, day 3): .circle.
Condition of feces ([3]; Table 9, 50 ppm in feed, day 4): .circle.
Condition of feces ([3]; Table 9, 50 ppm in feed, day 5): .circle.
Body weight at end ([4]; 1 ppm in feed): 102.4 kg
Body weight at feed exchange ([4]; 1 ppm in feed): 32.7 kg
Body weight gain for starter feed period ([4]; 1 ppm in feed): 25.4 kg
Body weight gain for whole period ([4]; 1 ppm in feed): 95.0 kg
Feed conversion for starter feed period ([4]; 1 ppm in feed): 1.95
Feed conversion for whole period ([4]; 1 ppm in feed): 2.90
Feed intake for starter feed period ([4]; 1 ppm in feed): 49.4 kg
Feed intake for whole period ([4]; 1 ppm in feed): 275.6 kg
Body weight at end ([4]; 2.5 ppm in feed): 104.6 kg
Body weight at feed exchange ([4]; 2.5 ppm in feed): 34.2 kg
Body weight gain for starter feed period ([4]; 2.5 ppm in feed): 26.9 kg
Body weight gain for whole period ([4]; 2.5 ppm in feed): 97.2 kg
Feed conversion for starter feed period ([4]; 2.5 ppm in feed): 1.83
Feed conversion for whole period ([4]; 2.5 ppm in feed): 2.86
Feed intake for starter feed period ([4]; 2.5 ppm in feed): 49.1 kg
Feed intake for whole period ([4]; 2.5 ppm in feed): 278.0 kg
Body weight at end ([4]; 5 ppm in feed): 109.0 kg
Body weight at feed exchange ([4]; 5 ppm in feed): 36.9 kg
Body weight gain for starter feed period ([4]; 5 ppm in feed): 29.5 kg
Body weight gain for whole period ([4]; 5 ppm in feed): 101.7 kg
Feed conversion for starter feed period ([4]; 5 ppm in feed): 1.72
Feed conversion for whole period ([4]; 5 ppm in feed): 2.80
Feed intake for starter feed period ([4]; 5 ppm in feed): 50.7 kg
Feed intake for whole period ([4]; 5 ppm in feed): 284.6 kg
Body weight at end ([4]; 10 ppm in feed): 110.2 kg
Body weight at feed exchange ([4]; 10 ppm in feed): 37.5 kg
Body weight gain for starter feed period ([4]; 10 ppm in feed): 30.1 kg
Body weight gain for whole period ([4]; 10 ppm in feed): 102.8 kg
Feed conversion for starter feed period ([4]; 10 ppm in feed): 1.70
Feed conversion for whole period ([4]; 10 ppm in feed): 2.77
Feed intake for starter feed period ([4]; 10 ppm in feed): 51.2 kg
Feed intake for whole period ([4]; 10 ppm in feed): 284.8 kg
growth and feed efficiency (in words) ([4]; dietary, 5 months): growth of pigs was increased in a manner almost proportional to the level of addition of lankacidin C, and accordingly the feed efficiency was improved
